# Experimental data taken from patent US6737383B1, “Herbicidal oxadiazolidines” (priority 1999, dated 2004).
# Experiments:
# morningglory = assay: Test B pre/postemergence morningglory; format: in vivo, Ipomoea hederacea
# In short: (§1)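 Herbicidal effect was estimated by eye on a ten-point control scale after plants spent twelve to sixteen days in a greenhouse following soil or foliar treatment. Foliar sprays targeted plants at one to four leaves; all doses were formulated in a non-phytotoxic solvent with surfactant.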
# surinam grass = assay: Test B pre/postemergence surinam grass; format: in vivo, Brachiaria decumbens
# In short: as §1
# rice = assay: Test B flood test rice; format: in vivo, Oryza sativa; conditions: for Rice plant response rating: Postemergence section (flood test species)
# In short: (§2)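 Flood test on plants grown to the 2-leaf stage; treated plants kept in greenhouse twelve to sixteen days, then visually rated against controls on a 0 (no effect) to 10 (complete control) scale.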
# wild oat = assay: Test B pre/postemergence wild oat; format: in vivo, Avena fatua
# In short: as §1
# giant foxtail = assay: Test B pre/postemergence giant foxtail; format: in vivo, Setaria faberii
# In short: as §1
# sugar beet = assay: Test B pre/postemergence sugar beet; format: in vivo, Beta vulgaris
# In short: as §1
# cocklebur = assay: Test B pre/postemergence cocklebur; format: in vivo, Xanthium strumarium
# In short: as §1
# purple nutsedge = assay: Test B pre/postemergence purple nutsedge; format: in vivo, Cyperus rotundus
# In short: as §1
# blackgrass = assay: Test B pre/postemergence blackgrass; format: in vivo, Alopecurus myosuroides
# In short: as §1
# corn = assay: Test B pre/postemergence corn; format: in vivo, Zea mays
# In short: as §1
# bedstraw = assay: Test B pre/postemergence bedstraw; format: in vivo, Galium aparine; conditions: Postemergence
# In short: as §1
# pigweed = assay: Test B pre/postemergence pigweed; format: in vivo, Amaranthus retroflexus
# In short: as §1
# wheat = assay: Test B pre/postemergence wheat; format: in vivo, Triticum aestivum
# In short: as §1
# bamyardgrass = assay: Test B flood test barnyardgrass; format: in vivo, Echinochloa crus-galli
# In short: as §2
# rape = assay: Test B pre/postemergence rape; format: in vivo, Brassica napus
# In short: as §1
# crabgrass = assay: Test B pre/postemergence crabgrass; format: in vivo, Digitaria sanguinalis
# In short: as §1
# [1] = Postemergence, Rate 250 g/ha, scale 0 to 10, 0 is no effect, 10 is complete control
# [2] = Postemergence, Rate 500 g/ha, scale of 0 to 10 where 0 is no effect and 10 is complete control
# [3] = Preemergence, Rate 62 g/ha, scale 0 to 10 (0 no effect, 10 complete control)
# [4] = Preemergence, Rate 125 g/ha, scale of 0 to 10 where 0 is no effect and 10 is complete control
# [5] = Preemergence, Rate 250 g/ha, scale 0 to 10, 0 is no effect, 10 is complete control
# [6] = Preemergence, Rate 500 g/ha, scale 0 to 10, 0 is no effect, 10 is complete control
# [7] = Rate 125 g/ha, Postemergence, scale 0 to 10, 0 is no effect, 10 is complete control
# [8] = Preemergence, Rate 250 g/ha, scale of 0 to 10 where 0 is no effect and 10 is complete control
# [9] = Rate 62 g/ha, Postemergence, scale of 0 to 10 where 0 is no effect and 10 is complete control
# [10] = Rate 500 g/ha, scale of 0 to 10 where 0 is no effect and 10 is complete control
# [11] = Rate 125 g/ha, scale 0 to 10, 0 is no effect, 10 is complete control
# [12] = flood test species, listed under Postemergence, Rate 250 g/ha, scale 0 to 10, 0 is no effect, 10 is complete control
structure (smiles),measurement,setting,value
CC(C)N(C(=O)n1oc(=O)n(C(CF)CF)c1=O)c1ccccc1 [Compound 421],"Plant response rating, Morningglory",morningglory; [1],9
same,Morningglory plant response rating,morningglory; [2],10
same,"Plant response rating, Morningglory",morningglory; [3],4
same,"Plant response rating, Morningglory",morningglory; [4],6
same,Morningglory plant response rating,morningglory; [5],7
same,Morningglory plant response rating,morningglory; [6],8
same,Morningglory plant response rating,morningglory; [7],8
same,"Plant response rating, B. signalgrass",surinam grass; [1],7
same,B. signalgrass plant response rating,surinam grass; [2],10
same,"Plant response rating, B. signalgrass",surinam grass; [3],7
same,"Plant response rating, B. signalgrass",surinam grass; [4],8
same,B. signalgrass plant response rating,surinam grass; [8],9
same,B. signalgrass plant response rating,"surinam grass; Preemergence, Rate 500 g/ha, scale of 0 to 10 where 0 is no effect and 10 is complete control",9
same,B. signalgrass plant response rating,surinam grass; [9],0
same,B. signalgrass plant response rating,surinam grass; [7],3
same,Rice plant response rating,rice; [10],2
same,Rice plant response rating,rice; [11],0
same,"Plant response rating, Rice",rice; [12],2
same,Wild oats plant response rating,wild oat; [2],8
same,"Plant response rating, Wild oats",wild oat; [3],6
same,"Plant response rating, Wild oats",wild oat; [4],7
same,Wild oats plant response rating,wild oat; [5],10
same,Wild oats plant response rating,wild oat; [6],10
same,Wild oats plant response rating,wild oat; [7],0
same,"Plant response rating, Giant foxtail",giant foxtail; [1],9
same,Giant foxtail plant response rating,giant foxtail; [2],9
same,"Plant response rating, Giant foxtail",giant foxtail; [3],9
same,"Plant response rating, Giant foxtail",giant foxtail; [4],10
same,Giant foxtail plant response rating,giant foxtail; [5],10
same,Giant foxtail plant response rating,giant foxtail; [6],10
same,Giant foxtail plant response rating,giant foxtail; [9],8
same,Giant foxtail plant response rating,giant foxtail; [7],9
same,"Plant response rating, Sugarbeets",sugar beet; [1],3
same,Sugarbeets plant response rating,sugar beet; [2],6
same,"Plant response rating, Sugarbeets",sugar beet; [3],8
same,"Plant response rating, Sugarbeets",sugar beet; [4],10
same,Sugarbeets plant response rating,sugar beet; [5],10
same,Sugarbeets plant response rating,sugar beet; [6],10
same,Sugarbeets plant response rating,sugar beet; [7],0
same,"Plant response rating, Cocklebur",cocklebur; [1],1
same,Cocklebur plant response rating,cocklebur; [2],6
same,"Plant response rating, Cocklebur",cocklebur; [3],0
same,"Plant response rating, Cocklebur",cocklebur; [4],0
same,Cocklebur plant response rating,cocklebur; [6],0
same,Cocklebur plant response rating,cocklebur; [9],0
same,Cocklebur plant response rating,cocklebur; [7],0
same,"Plant response rating, Nutsedge",purple nutsedge; [1],0
same,Nutsedge plant response rating,purple nutsedge; [2],2
same,"Plant response rating, Nutsedge",purple nutsedge; [3],0
same,"Plant response rating, Nutsedge",purple nutsedge; [4],0
same,Nutsedge plant response rating,purple nutsedge; [5],0
same,Nutsedge plant response rating,purple nutsedge; [6],0
same,Nutsedge plant response rating,purple nutsedge; [7],0
same,"Plant response rating, Blackgrass",blackgrass; [1],8
same,Blackgrass plant response rating,blackgrass; [2],10
same,"Plant response rating, Blackgrass",blackgrass; [3],8
same,"Plant response rating, Blackgrass",blackgrass; [4],10
same,Blackgrass plant response rating,blackgrass; [8],10
same,Blackgrass plant response rating,blackgrass; [6],10
same,Blackgrass plant response rating,blackgrass; [9],8
same,Blackgrass plant response rating,blackgrass; [7],8
same,"Plant response rating, Corn",corn; [1],3
same,Corn plant response rating,corn; [2],7
same,"Plant response rating, Corn",corn; [3],4
same,"Plant response rating, Corn",corn; [4],5
same,Corn plant response rating,corn; [5],8
same,Corn plant response rating,corn; [6],8
same,Corn plant response rating,corn; [9],0
same,Corn plant response rating,corn; [7],0
same,"Plant response rating, Bedstraw","bedstraw; Rate 250 g/ha, scale 0 to 10, 0 is no effect, 10 is complete control",7
same,Bedstraw plant response rating,bedstraw; [10],7
same,Bedstraw plant response rating,bedstraw; [11],4
same,"Plant response rating, Redroot pigweed",pigweed; [1],5
same,Redroot pigweed plant response rating,pigweed; [2],8
same,"Plant response rating, Redroot pigweed",pigweed; [3],8
same,"Plant response rating, Redroot pigweed",pigweed; [4],10
same,Redroot pigweed plant response rating,pigweed; [5],10
same,Redroot pigweed plant response rating,pigweed; [6],10
same,Redroot pigweed plant response rating,pigweed; [7],2
same,Wheat plant response rating,wheat; [2],7
same,"Plant response rating, Wheat",wheat; [3],4
same,"Plant response rating, Wheat",wheat; [4],4
same,Wheat plant response rating,wheat; [5],7
same,Wheat plant response rating,wheat; [6],9
same,Wheat plant response rating,wheat; [7],1
same,Barnyardgrass plant response rating,"bamyardgrass; Postemergence section (flood test species), Rate 500 g/ha, scale of 0 to 10 where 0 is no effect and 10 is complete control",3
same,Barnyardgrass plant response rating,"bamyardgrass; Rate 62 g/ha, Postemergence (flood test species), scale of 0 to 10 where 0 is no effect and 10 is complete control",0
same,Barnyardgrass plant response rating,"bamyardgrass; Rate 125 g/ha, Postemergence section (flood test species), scale 0 to 10, 0 is no effect, 10 is complete control",0
same,"Plant response rating, Barnyardgrass",bamyardgrass; [12],2
same,"Plant response rating, Rape",rape; [1],3
same,Rape plant response rating,rape; [2],8
same,"Plant response rating, Rape",rape; [3],8
same,"Plant response rating, Rape",rape; [4],10
same,Rape plant response rating,rape; [5],10
same,Rape plant response rating,rape; [6],10
same,Rape plant response rating,rape; [7],0
same,"Plant response rating, Crabgrass",crabgrass; [1],8
same,Crabgrass plant response rating,crabgrass; [2],8
same,"Plant response rating, Crabgrass",crabgrass; [3],8
same,"Plant response rating, Crabgrass",crabgrass; [4],8
same,Crabgrass plant response rating,crabgrass; [5],9
same,Crabgrass plant response rating,crabgrass; [6],10
same,Crabgrass plant response rating,crabgrass; [9],4
same,Crabgrass plant response rating,crabgrass; [7],7
